The text below walks through data of US20120213826A1, “Use of Pro-Inflammatory Compounds for Promoting Bone Formation” (Imperial Innovations Limited, priority 2009, published 2012).

Entries after “also recorded” stand apart in the source; their conditions may differ.

The test system of assay [1] is muscle-derived stromal cells (MDSC). The assay can be described thus: ALP quantification assay, osteogenic differentiation of cultured MDSC. The conditions noted are these: for ALP expression (osteogenic differentiation) in cultured MDSC: Example 1, exogenous recombinant human factor added to MDSC culture (FIG. 8, 10, 12); for ALP expression by MDSC: 7 days in human serum-containing media with recombinant human factor (FIG. 26B, 26D). Type of assay: cell-based, human. From the text:
The immunoglobulin isotype controls used included IgG^1 for AbBMP-2/4 and AbTGF-β, and IgG^2B for Ab-BMP-7. B: human serum containing culture medium with the addition of recombinant human BMPs and TGF-β. C: fracture supernatant±antibody neutralization of TNF-α, IL-6 and IL-1β. The IgG^1 immunoglobulin was used as the antibody isotype control. D: human serum-containing culture medium with the addition of recombinant human TNF-α, IL-6 and IL-1β. E: Alizarin red staining for bone nodule formation after culture of 1×10^4 MDSC in human serum-containing media. […] A representative image from a single well is shown. All experiments were performed 3 times, in triplicate (n=3) using MDSC from 3 donors. Values for A-D represent a mean from 3 experiments ±SEM, using supernatant from 3 donors in A and C. *: P<0.05; **: P<0.01; ***: P<0.001; 1-way ANOVA with Bonferroni's multiple comparison test in A and C and with Dunnett's multiple comparison test against the media only control in B and D.
To investigate the fracture-derived stimulus for osteogenic differentiation of MDSC, fracture supernatants were prepared using human tibial fracture fragments obtained within 24 hours of injury (ethics approval number—COREC No: 07/Q0411/30). […] Bone fragments were obtained from either fractured tibial fragments or non-traumatically cut bone slices. These were then incubated in serum free DMEM+Glutamax media for 24 hours. The supernatant was then filter sterilised to remove any contaminants and cellular debris. MDSC were then cultured in the presence of either control media, osteogenic media, fracture supernatant or non-fracture supernatant for 7 days before lysis and quantification of ALP levels.
1×10^4 human MDSC were added to wells of a 96 well plate in triplicate. At 24 hrs the media was pipetted off and replaced by 200 μl test media. The media was changed every 3 days. At 7 days the media was removed and the cells lysed in 20 μl NP-40 lysis buffer. An ALP quantification assay (WAKO pure chemical Ltd.) was used. Calibration solution from the assay was serially diluted to make concentrations of 0.25, 0.125 and 0.0625 mmol/L. To empty wells, 20 μl of each calibration solution was added. To another, dH2O was added. 100 μl reagent (1 taBIet per 5 ml buffer solution) was added to each well, and incubated at 37° C. for 20 minutes. 80 μl stop solution was then added to each well and the plate was read using an ELISA spectrometer at 405 nm wavelength. The concentration of ALP in the test wells was extrapolated from the standard curve.

Assay [2] has the same test system. The assay can be described thus: Bone nodule formation by MDSC (alizarin red staining). Type of assay: cell-based, human. Particulars: Example 3; recombinant cytokine at optimal dose for first 3 days, human serum-containing media (FIG. 26E). From the text: FIG. 26 TNF-α and IL-6 promote osteogenic differentiation of MDSC A-D: ALP quantification assays after culture of 1×10^4 MDSC for 7 days in a 96-well plate in triplicate with: A: fracture supernatant, ±antibody neutralization of BMPs 2/4 7 and to TGF-β. The immunoglobulin isotype controls used included IgG^1 for AbBMP-2/4 and AbTGF-β, and IgG^2B for Ab-BMP-7. B: human serum containing culture medium with the addition of recombinant human BMPs and TGF-β. C: fracture supernatant±antibody neutralization of TNF-α, IL-6 and IL-1β. The IgG^1 immunoglobulin was used as the antibody isotype control. D: human serum-containing culture medium with the addition of recombinant human TNF-α, IL-6 and IL-1β. E: Alizarin red staining for bone nodule formation after culture of 1×10^4 MDSC in human serum-containing media. Recombinant human cytokine at the optimal dose indicated by D, was added for the first 3 days ONLY, and the cells were subsequently cultured in media for 32 days. A representative image from a single well is shown. All experiments were performed 3 times, in triplicate (n=3) using MDSC from 3 donors. Values for A-D represent a mean from 3 experiments ±SEM, using supernatant from 3 donors in A and C. *: P<0.05; **: P<0.01; ***: P<0.001; 1-way ANOVA with Bonferroni's multiple comparison test in A and C and with Dunnett's multiple comparison test against the media only control in B and D.
1×10^4 MDSC were added to wells of a 24-well plate in triplicate. The cells were cultured for 35-40 days in osteogenic media (DMEM with 10% fetal calf serum and 1% penicillin/streptomycin also containing 100 nM dexamethasone (SIGMA), 1 mM β-glycerol phosphate and […] ascorbic acid), supernatant or media containing recombinant cytokines (with one media change per week) the cells were fixed with 2 ml 10% neutral buffered formalin at room temperature for 15 min. The plate was then washed twice with excess PBS. 1 ml filtered 40 mM alizarin red solution (pH 4.1) was added to each well and agitated at room temperature for 30 minutes. The excess dye was then aspirated and the plate washed four times in distilled water with gentle agitation. Finally, the plates were turned upside-down on paper to dry. Bone nodules appeared red under light microscopy. Images were taken at 20 times magnification and performed as above.

The test system is the same in assay [3]. Briefly: MDSC migration through a transwell membrane. The assay is classed as cell-based, human. The conditions noted are these: for migration of MDSC: 8 μm transwell, 36 hours, recombinant cytokine in human serum-containing media (FIG. 27B). Here is the method:
Migration of 1×10^4 MDSC through an 8 μm pore transwell membrane over 36 hours, in response to fracture supernatant with the addition of AbTNF-α, AbIL-6 and AbIL-1β. The IgG^1 immunoglobulin was used as the antibody control. B: Migration in response to rhTNF-α, rhIL-6 and rhIL-1β in human serum-containing media. Results represent change in cell number, expressed as a percentage of the supernatant, or media only control. Each experiment was performed 3 times (n=3) using 3 fracture supernatants (in A). Results represent mean of 3 experiments ±SEM. *: P<0.05; **: P<0.01; ***: P<0.001; 1-way ANOVA with Bonferroni's multiple comparison test.
MDSC must be recruited to the fracture site from adjacent muscle. Next we assessed the efficacy of the pro-inflammatory cytokines in attracting MDSC in vitro using a transwell assay. 1×10^4 MDSC were seeded onto a 8 μm transwell membrane in serum free media. Next day, the transwell membrane was added to a well containing 10% human serum-containing media +IL-1β, IL6 and TNFα at the end concentrations shown. At 24 hrs the membrane was cleared of any cells on the seeded side, fixed and stained. IL-1β appeared not promote MDSC chemotaxis.
500 μl serum free media was added to each well of a 24 well plate. 8 μm pore transwell membranes (VWR International Ltd) were then added to the wells. 1×10^4 MDSC in serum free media were added to the upper chamber of each transwell membrane. At 12 hours the serum-free media was replaced with test or control media or supernatant and incubated at 37° C. for 36 hours. The upper chambers were then cleared of cells and cell debris using a cotton bud, in sweeping motions. The membrane was then washed and fixed using 10% neutral buffered formalin for 1 hour. After washing, the membrane was then added to a 1% crystal violet solution for 1 hour. After further washing, the membranes were viewed under light microscopy at 20 times magnification, using an Olympus CKX41 microscope with a QICAM camera, (QIMAGING, GT vision LLC). The number of cells present on the underside of the transwell membrane in any random field was counted 3 times and the mean calculated. Cell migration was calculated against the supernatant or human serum-containing (control) media and the number expressed as a percentage relative to the control media.

For assay [4] the test system is unchanged. Briefly: MDSC proliferation (CellTiter-Glo luminescent cell viability assay). Type of assay: cell-based, human. Particulars: Example 3; for MDSC proliferation: 1, 3 and 5 days in human serum-containing media ± recombinant human cytokine (FIG. 28); for cell proliferation in excess of the media-only control: recombinant human BMPs, data not shown. How it is done: CellTiter-Glo® luminescent cell viability assay for MDSC in culture with A: TNF-α, B: IL-6 and C: IL-1β. 2.5×10^3 cells were cultured in triplicate for 1, 3 and 5 days in human serum-containing media ± recombinant human cytokine at the concentration indicated. The number of viaBIe cells in culture was determined using the assay, where luminescent signal is directly proportional to the concentration of ATP from viaBIe cells.
In order to test this hypothesis, proliferation of MDSC in human serum-containing media with rhTNF-α, rhIL-6 and rhIL-1β was tested using the CellTiter-Glo® luminescent cell viability assay was used (Promega Corp., Madison, Wis.).
This method assays the number of viaBIe cells in culture, by measuring adenosine triphosphate (ATP), where the luminescent signal is directly proportional to the number of ATP present.
In general terms: Cellular ATP, detected with luciferase, serves as a proxy for viable cell number.

Assay [5] deals with murine open tibial fracture. The assay can be described thus: Murine open tibial fracture model, periosteally stripped (histology, CT scans). The assay is classed as in vivo, C57BI/6 mice. The conditions noted are these: 28 days post injury; local administration at fracture site (TNFα 50 ng/kg and HMGB1 at time of fracture and 24 hr later) (FIG. 19, 30).

As to “IL-1β: pro-inflammatory cytokine, recombinant human IL-1β”, the “ALP expression (osteogenic differentiation) in cultured MDSC” value in assay [1] is “dose-dependent stimulation of ALP expression”. The “concentration of peak ALP expression by MDSC” value in assay [1] (Example 3, variable between donor cell populations (FIG. 26D)) came out at 100 µg/mL. In assay [2], the “bone nodule formation by MDSC” value is recorded as “did not stimulate bone nodule formation”. Moreover, the “migration of MDSC” value in assay [3] (Example 3) is “did not appear to promote MDSC migration”. The MDSC proliferation entry in assay [4] is given as “do not promote MDSC proliferation”.
For the molecule “IL-6: pro-inflammatory cytokine, recombinant human IL-6”, the “ALP expression (osteogenic differentiation) in cultured MDSC” value in assay [1] was “dose-dependent stimulation of ALP expression”. Further, the “ALP expression by MDSC” value in assay [1] (Example 3) is “increased with the dose through the range tested”. Besides, the “bone nodule formation by MDSC” value in assay [2] is given as “promoted de novo bone formation”. Moreover, the “chemotaxis / migration of MDSC” value in assay [3] (Example 1, transwell, 10% human serum-containing media, 24 hrs (FIG. 14)) is on record as “promote chemotaxis of MDSC”. Besides, the “migration of MDSC” value in assay [3] (Example 3) is given as “chemo attractant for MDSC”. Also, the “optimal concentration for MDSC migration” value in assay [3] (Example 3, transwell, 36 hours (FIG. 27B)) was found to be 1 ng/mL. The MDSC proliferation result in assay [4] is “do not promote MDSC proliferation”.
TGF-β: the “ALP expression (osteogenic differentiation) in cultured MDSC” value in assay [1] was “promotes osteogenic differentiation”. Besides, the “ALP expression by MDSC” value in assay [1] (Example 3) is on record as “did not induce ALP expression”.

B1: IFN-γ: proinflammatory cytokine, recombinant human Interferon-gamma (protein, UniProt P01579 24-161, looked up)
Interferon gamma: QDPYVKEAENLKKYFNAGHSDVADNGTLFLGILKNWKEESDRKIMQSQIVSFYFKLFKNFKDDQSIQKSVETIKEDMNVKFFNSNKKKRDDFEKLTNYSVTDLNVQRKAIHELIQVMAELSPAAKTGKRKRSQMLFRG
In the case of B1, the “ALP expression (osteogenic differentiation) in cultured MDSC” value in assay [1] is “modest dose-dependent stimulation of osteogenesis”.

B2: HMGB1: damage associated molecular pattern molecule (alarmin), RAGE ligand protein (protein, UniProt P09429 1-215, looked up)
High mobility group protein B1: MGKGDPKKPRGKMSSYAFFVQTCREEHKKKHPDASVNFSEFSKKCSERWKTMSAKEKGKFEDMAKADKARYEREMKTYIPPKGETKKKFKDPNAPKRPPSAFFLFCSEYRPKIKGEHPGLSIGDVAKKLGEMWNNTAADDKQPYEKKAAKLKEKYEKDIAAYRAKGKPDAAKKGVVKAEKSKKKKEEEEDEEDEEDEEEEEDEEDEDEEEDDDDE
B2: the “healing of tibial fractures by CT scans” value in assay [5] was “statistically significantly enhanced healing; also recorded: accelerates fracture healing”.

B3: BMP7: recombinant human bone morphogenetic protein 7 (protein, UniProt P18075 293-431, looked up)
Bone morphogenetic protein 7: STGSKQRSQNRSKTPKNQEALRMANVAENSSSDQRQACKKHELYVSFRDLGWQDWIIAPEGYAAYYCEGECAFPLNSYMNATNHAIVQTLVHFINPETVPKPCCAPTQLNAISVLYFDDSSNVILKKYRNMVVRACGCH
Consider B3, for which the “ALP expression (osteogenic differentiation) in cultured MDSC” value in assay [1] is “promotes osteogenic differentiation”. Also, the “ALP expression by MDSC” value in assay [1] (Example 3) is “did not induce ALP expression”. Besides, in assay [4], the “cell proliferation in excess of the media-only control” value is “did not induce cell proliferation”.

B4: BMP4: recombinant human bone morphogenetic protein 4 (protein, UniProt P12644 293-408, looked up)
Bone morphogenetic protein 4: SPKHHSQRARKKNKNCRRHSLYVDFSDVGWNDWIVAPPGYQAFYCHGDCPFPLADHLNSTNHAIVQTLVNSVNSSIPKACCVPTELSAISMLYLDEYDKVVLKNYQEMVVEGCGCR
With B4, the “ALP expression by MDSC” value in assay [1] (Example 3) is listed as “did not induce ALP expression”. Further, the “cell proliferation in excess of the media-only control” value in assay [4] is given as “did not induce cell proliferation”.
